Experimental data as given in US10065990B2, “Cyclic peptide compound, and preparation method, pharmaceutical composition and use thereof” (HANGZHOU GUANYU BIO-MEDICAL CO., LTD, priority 2013, dated 2018).
Like-named read-outs stand apart in the source and are kept apart here.

Legend:
HDAC7 = target: T1, HDAC7 (Homo sapiens, UniProt Q8WUI4); test: HDAC biochemical activity measurement (fluorescent substrate deacetylation);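 further: fluorogenic deacetylation assay using acetyl-lysine substrate at 20 µM, enzyme and compound incubated 30 min at 37 °C, then developer added, fluorescence read at 360/460 nm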; conditions: HDAC7; 37° C. 30 minutes
T1 sequence (Q8WUI4 1-952): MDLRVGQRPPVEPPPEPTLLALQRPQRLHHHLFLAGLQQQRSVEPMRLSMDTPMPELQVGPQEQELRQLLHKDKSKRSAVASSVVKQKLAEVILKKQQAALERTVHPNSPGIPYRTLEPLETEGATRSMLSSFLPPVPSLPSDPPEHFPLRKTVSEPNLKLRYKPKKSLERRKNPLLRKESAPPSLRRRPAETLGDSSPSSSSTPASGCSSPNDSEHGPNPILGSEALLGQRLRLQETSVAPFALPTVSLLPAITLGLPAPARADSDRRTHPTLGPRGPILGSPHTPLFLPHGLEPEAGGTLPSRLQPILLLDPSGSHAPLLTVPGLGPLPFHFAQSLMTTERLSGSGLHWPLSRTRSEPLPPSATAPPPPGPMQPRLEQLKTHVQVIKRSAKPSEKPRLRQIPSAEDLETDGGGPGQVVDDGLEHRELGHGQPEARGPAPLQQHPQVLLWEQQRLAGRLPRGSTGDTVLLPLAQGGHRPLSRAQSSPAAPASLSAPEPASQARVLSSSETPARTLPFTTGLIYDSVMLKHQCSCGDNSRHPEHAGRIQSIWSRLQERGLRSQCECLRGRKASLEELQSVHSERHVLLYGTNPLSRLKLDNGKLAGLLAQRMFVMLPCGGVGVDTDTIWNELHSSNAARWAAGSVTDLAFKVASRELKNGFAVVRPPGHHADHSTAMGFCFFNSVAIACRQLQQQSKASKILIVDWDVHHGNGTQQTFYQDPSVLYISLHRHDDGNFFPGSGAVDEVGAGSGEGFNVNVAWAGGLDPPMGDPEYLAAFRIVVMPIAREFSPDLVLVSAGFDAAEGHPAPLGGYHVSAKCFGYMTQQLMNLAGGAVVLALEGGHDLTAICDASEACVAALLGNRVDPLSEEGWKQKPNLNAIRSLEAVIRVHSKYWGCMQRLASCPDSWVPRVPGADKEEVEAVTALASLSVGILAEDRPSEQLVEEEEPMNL
Experimental: The chemical activity of the compound is determined according to the degree of deacetylation inhibition of the HDAC enzyme. This experiment measured the degree of deacetylation related to tumor proliferation and metastasis of HDAC1, HDAC2, HDAC3, HDAC8, HDAC11 five subtypes HDAC enzymes. After the substrate containing an acetylated lysine side chain and HDAC enzyme are labeled with a fluorescent label, the fluorescent substrate is de acetyl. The fluorescent labeled substrate is cleaved by the enzyme, and the fluorescent substance is released, which generates 460 nm emission light under the excitation of 360 nm light.
HDAC substrate was diluted with reaction buffer to 200M (reaction concentration of 20M), the HDAC enzyme was diluted to the appropriate concentration, then added different concentrations of the test compounds and acted at 37° C. 30 minutes, and then added the same volume of 2-times concentration substrate developing solution (developer), incubated at room temperature for 15 minutes. Finally, the last reading measured with a microplate plate reader, excitation light was 360 nm, the emitted light was 460 nm, data processing software was Prime 4, and the results are shown in Table 1.

[1] = test system: A549 (human lung cancer cells); test: MTT cancer cell growth inhibition; assay type: cell-based; conditions: Homo sapiens, A549, 72 h, MTT, 72 hours incubation, read-out: GI50 A54
In short: (§1)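 72 h exposure, final drug 10^−5–10^−10 M, triplicate wells; 1500 cells/well plated the day before; medium DMEM or 1640 + 10% FBS; 37° C./5% CO2. MTT (5 mg/ml stock) 4 h, DMSO solubilisation, A570 → % viability → GI50.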

[2] = test system: BGC-823 (human gastric cancer cells); test: MTT cancer cell growth inhibition; assay type: cell-based; conditions: Homo sapiens, BGC-823, 72 h, MTT, 72 hours incubation, read-out: GI50 BG
In short: as §1

[3] = test system: Bel-7402 (human hepatoma cells); test: MTT cancer cell growth inhibition; assay type: cell-based; conditions: Homo sapiens, Bel-7402, 72 h, MTT, 72 hours incubation, Bel-7402 cells; read-out: GI50 Bel-7402
In short: as §1

[4] = test system: DU145 (human prostate cancer cells); test: MTT cancer cell growth inhibition; assay type: cell-based; conditions: Homo sapiens, DU-145, 72 h, MTT, 72 hours incubation, read-out: GI50 Du1
In short: as §1

[5] = test system: H1975 (non-small cell lung adenocarcinoma); test: MTT cancer cell growth inhibition; assay type: cell-based; conditions: Homo sapiens, NCI-H1975, 72 h, MTT, 72 hours incubation, H1975 cells; read-out: GI50 H1975
In short: as §1

[6] = test system: HCC827 (human non-small cell lung cancer cells); test: MTT cancer cell growth inhibition; assay type: cell-based; conditions: Homo sapiens, HCC827, 72 h, MTT, 72 hours incubation, HCC827 cells; read-out: GI50 HCC827
In short: as §1

[7] = test system: HT1080 (human fibrosarcoma cells); test: MTT cancer cell growth inhibition; assay type: cell-based; conditions: Homo sapiens, HT-1080, 72 h, MTT, 72 hours incubation, read-out: GI50 HT1
In short: as §1

[8] = test system: Hela (human cervical cancer cells); test: MTT cancer cell growth inhibition; assay type: cell-based; conditions: Homo sapiens, HeLa, 72 h, MTT, 72 hours incubation, read-out: GI50 Hela
In short: as §1

[9] = test system: Huh-7 (human hepatoma cells); test: MTT cancer cell growth inhibition; assay type: cell-based; conditions: Homo sapiens, Huh-7, 72 h, MTT, 72 hours incubation, Huh-7 cells; read-out: GI50 Huh-7
In short: as §1

[10] = test system: K562 (human leukemia cells); test: MTT cancer cell growth inhibition; assay type: cell-based; conditions: Homo sapiens, K562, 72 h, MTT, 72 hours incubation, K562 cells; read-out: GI50 K562
In short: as §1

[11] = test system: KBM-5 (human chronic myelogenous leukemia); test: MTT cancer cell growth inhibition; assay type: cell-based; conditions: Homo sapiens, KBM5, 72 h, MTT, 72 hours incubation, KBM-5 cells; read-out: GI50 KBM-5
In short: as §1

[12] = test system: KBM5-T315I (human chronic myelogenous leukemia); test: MTT cancer cell growth inhibition; assay type: cell-based; conditions: Homo sapiens, 72 h, MTT, 72 hours incubation, KBM5-T315I cells; read-out: GI50 KBM5-T315I
In short: as §1

[13] = test system: MCF-7 (human breast cancer cells); test: MTT cancer cell growth inhibition; assay type: cell-based; conditions: Homo sapiens, MCF7, 72 h, 72 hours incubation, read-out: GI50 MCF
In short: as §1

[14] = test system: MDA-MB-231 (breast cancer cells); test: MTT cancer cell growth inhibition; assay type: cell-based; conditions: Homo sapiens, MDA-MB-231, 72 h, read-out: GI50 MDA-MB-231, MTT, 72 hours incubation, MDA-MB-231 cells
In short: as §1

[15] = test system: MOLT-4 (human acute lymphoblastic leukemia cells); test: MTT cancer cell growth inhibition; assay type: cell-based; conditions: Homo sapiens, MOLT-4, 72 h, MTT, 72 hours incubation, read-out: GI50 Mol
In short: as §1

[16] = test system: N-87 (human gastric cancer cells); test: MTT cancer cell growth inhibition; assay type: cell-based; conditions: Homo sapiens, 72 h, MTT, 72 hours incubation, N-87 cells; read-out: GI50 N-87
In short: as §1

[17] = test system: PANC-1 (Pac-1, human pancreatic cancer cells); test: MTT cancer cell growth inhibition; assay type: cell-based; conditions: Homo sapiens, PANC-1, 72 h, MTT, 72 hours incubation, read-out: GI50 PAN
In short: as §1

[18] = test system: SGC-7901 (human gastric cancer cells); test: MTT cancer cell growth inhibition; assay type: cell-based; conditions: Homo sapiens, SGC-7901, 72 h, MTT, 72 hours incubation, SGC-7901 cells; read-out: GI50 SGC-7901
In short: as §1

[19] = test system: U937 (human leukemia cells); test: MTT cancer cell growth inhibition; assay type: cell-based; conditions: Homo sapiens, U-937, 72 h, MTT, 72 hours incubation, read-out: GI50 U93
In short: as §1

[20] = test system: lncap (prostate cancer cells); test: MTT cancer cell growth inhibition; assay type: cell-based; conditions: Homo sapiens, LNCaP, 72 h, MTT, 72 hours incubation, read-out: GI50 lnca
In short: as §1

Compound	IC50 HDAC7 (HDAC7)	GI50 [1] [nM]	GI50 [2] [nM]	GI50 [3] [nM]	GI50 [4] [nM]	GI50 [5] [nM]	GI50 [6] [nM]	GI50 [7] [nM]	GI50 [8] [nM]	GI50 [9] [nM]	GI50 [10] [nM]	GI50 [11] [nM]	GI50 [12] [nM]	GI50 [13] [nM]	GI50 [14] [nM]	GI50 [15] [nM]	GI50 [16] [nM]	GI50 [17] [nM]	GI50 [18] [nM]	GI50 [19] [nM]	further results
C=C1NC(=O)c2cccc(n2)CNC(=O)C[C@@H](/C=C/CCSC(C)=O)OC(=O)[C@H](C)NC1=O [Example 21]	no activity	330	870	83	990	37	34	1050	400	84	25	73	27	100	98	1010	35	1170	24	5110	GI50 [20]: 1210 nM
C/C=C1\NC(=O)c2cc(F)cc(n2)CNC(=O)C[C@@H](/C=C/CCSC(=O)CCCCCC)OC(=O)[C@H](C(C)C)NC1=O [Example 34]	no activity	40	60	94	50	34	94	90	70	49	53	74	53	50	49	40	67	90	49	30	GI50 [20]: 40 nM
C/C=C1\NC(=O)c2ccc(SC)c(n2)CNC(=O)C[C@@H](/C=C/CCSC(C)=O)OC(=O)[C@@H](C)NC1=O [Compound 222]	no activity	–	–	14	–	83	63	–	–	39	83	43	35	–	52	–	98	–	47	–	GI50 ([1]; A549 cells): 50 nM; GI50 ([2]; BGC-823 cells): 40 nM; GI50 ([4]; DU145 cells): 30 nM; GI50 ([7]; HT1080 cells): 70 nM; GI50 ([8]; Hela cells): 20 nM; GI50 ([13]; MCF-7 cells): 70 nM; GI50 ([15]; MOLT-4 cells): 30 nM; GI50 ([17]; PANC-1 cells): 30 nM; GI50 ([19]; U937 cells): 80 nM; GI50 ([20]; lncap cells): 60 nM
C=C1NC(=O)c2cc(F)cc(n2)CNC(=O)C[C@@H](/C=C/CCSC(C)=O)OC(=O)[C@H](C(C)C)NC1=O [Compound 85]	no activity	10	20	49	20	61	49	40	50	39	26	53	25	20	39	30	27	40	15	60	GI50 [20]: 30 nM
C/C=C1\NC(=O)c2nc(F)cc(n2)CNC(=O)C[C@@H](/C=C/CCSC(C)=O)OC(=O)[C@H](C(C)C)NC1=O [Compound 96]	no activity	40	20	61	20	73	65	40	60	48	19	72	54	20	57	30	27	40	37	20	GI50 [20]: 30 nM
C/C=C1\NC(=O)c2cc(SC)cc(n2)CNC(=O)C[C@@H](/C=C/CCSC(C)=O)OC(=O)[C@H](Cc2ccccc2)NC1=O [Compound 187]	no activity	–	–	43	–	23	75	–	–	85	45	21	41	–	11	–	42	–	38	–	GI50 ([1]; A549 cells): 60 nM; GI50 ([2]; BGC-823 cells): 60 nM; GI50 ([4]; DU145 cells): 50 nM; GI50 ([7]; HT1080 cells): 20 nM; GI50 ([8]; Hela cells): 40 nM; GI50 ([13]; MCF-7 cells): 20 nM; GI50 ([15]; MOLT-4 cells): 30 nM; GI50 ([17]; PANC-1 cells): 60 nM; GI50 ([19]; U937 cells): 60 nM; GI50 ([20]; lncap cells): 60 nM
CC(=O)SCC/C=C/[C@@H]1CC(=O)NCc2nc(ccc2F)C(=O)NC(=C(C)C)C(=O)N[C@@H](C(C)C)C(=O)O1 [Compound 89]	no activity	30	10	83	10	26	83	80	90	31	16	93	38	30	31	30	13	80	34	20	GI50 [20]: 30 nM
